# Experimental data reported in US20250092065A1, “2-(INDAZOL-5-YL)-6-(PIPERIDIN-4-YL)-1,7-NAPHTHYRIDINE DERIVATIVES AND RELATED COMPOUNDS AS MODULATORS FOR SPLICING NUCLEIC ACIDS AND FOR THE TREATMENT OF PROLIFERATIVE DISEASES” (REMIX THERAPEUTICS INC., priority 2022, published 2025).
# Like-named read-outs stand apart in the source and are kept apart here.
# Tests used:
# K562 cells = experiment: Cell Titer Glo 2.0 cell viability (toxicity) assay, K562; settings: 500 cells/well, 72 hours
# Experimental: Compounds described herein were screened for toxicity in K562 (human chronic myelogenous leukemia) and SH-SY5Y (human neuroblastoma) cells using a Cell Titer Glo 2.0 assay.
# Cells were plated at 500 cells/well (K562 cells) in 45 μL of IMDM supplemented with 10% FBS in a 384-well opaque plate. Wells containing only medium were used as a blank control. Test compounds (e.g., compounds of Formula (I) or (II)) were first serially diluted in DMSO then diluted 1:100 with EIDM+10% FBS. The final concentration of DMSO was 0.1% in each well. The cells were incubated for 72 hours at 37° C. and 5% CO2 before assaying with Cell Titer Glo 2.0 reagent.
# Target C = experiment: RT-qPCR canonical junction panel assay, Target C mRNA; assay type: cell-based; settings: Table 4, read-out: Target C IC50 (decrease in CJ mRNA levels)
# Method in brief: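 A673 or K562 cells treated with compound; CJ mRNA quantified by junction-spanning RT-qPCR probe after cDNA synthesis, normalised to GAPDH, GUSB or PPIA and DMSO (2^−ΔΔCt), scaled to set ΔCt assay window; IC50 from 4-parameter fit of CJ decrease.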
# SMN2 mRNA = experiment: RT-qPCR splicing assay, SMN2 mRNA; assay type: cell-based, human; settings: canonical junction qPCR panel, Table 4, read-out: SMN2 IC50 (decrease in CJ mRNA levels)
# Method in brief: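 A673 or K562 cells treated 24 h at 37 °C with an 11-point 3-fold dilution series (top 10 uM, DMSO ≤0.25%). Lysates went directly to one-step RT-qPCR quantifying canonical (CJ) and alternative-exon (AJ) junctions, normalized to GAPDH, GUSB or PPIA. Values from ΔΔCt versus DMSO, RQ = 2^(−ΔΔCt), expressed as percentage response.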
SMILES,"Effect of Exemplary Compounds on Cell Viability, K562 (K562 cells)",IC50 (Target C),IC50 (SMN2 mRNA; Homo sapiens),IC50 (SMN2 mRNA)
"Cn1cc2cc(-c3ccc4nc(N5CCC(NC6CC6)C5)ccc4n3)c(O)c(F)c2n1 (racemic) [Compound 287, 5-{6-[3-(cyclopropylamino)pyrrolidin-1-yl]-1,5-naphthyridin-2-yl}-7-fluoro-2-methylindazol-6-ol; trifluoroacetic acid]",A (A represents <100 nM),< 100 nM,< 100 nM,
"CC(C)N[C@@H]1CCN(c2ccc3nc(-c4cc5cn(C)nc5c(F)c4O)ccc3n2)C1 (single isomer, unassigned) [Compound 285]",A (A represents <100 nM),< 100 nM,< 100 nM,
"CC(C)N[C@H]1CCN(c2ccc3nc(-c4cc5cn(C)nc5c(F)c4O)ccc3n2)C1 (single isomer, unassigned) [Compound 286]",A (A represents <100 nM),< 100 nM,< 100 nM,
"Cc1c(O)c(-c2ccc3nc(N4CC[C@@H](NC5CCC5)C4)ccc3n2)cc2cn(C)nc12 (single isomer, unassigned) [Compound 289]",A (A represents <100 nM),< 100 nM,< 100 nM,
"Cc1c(O)c(-c2ccc3nc(N4CC[C@H](NC5CCC5)C4)ccc3n2)cc2cn(C)nc12 (single isomer, unassigned) [Compound 290]",A (A represents <100 nM),< 100 nM,< 100 nM,
"Cc1nc2cc(O)c(-c3ccc4nc(N5CCC(NCC6CC6)C5)ccc4n3)cc2o1 (single isomer, unassigned) [Compound 291, 6-(6-{3-[(cyclopropylmethyl)amino]pyrrolidin-1-yl}-1,5-naphthyridin-2-yl)-2-methyl-1,3-benzoxazol-5-ol]",B (B represents 100-1000 nM),100 to 1000 nM,< 100 nM,
"Cc1nc2cc(O)c(-c3ccc4nc(N5CCC(NCC6CC6)C5)ccc4n3)cc2o1 (single isomer, unassigned) [Compound 292, 6-(6-{3-[(cyclopropylmethyl)amino]pyrrolidin-1-yl}-1,5-naphthyridin-2-yl)-2-methyl-1,3-benzoxazol-5-ol]",B (B represents 100-1000 nM),100 to 1000 nM,,< 100 nM
"Cc1nc2c(C)c(O)c(-c3ccc4nc(N5CC[C@@H](NCC6CC6)C5)ccc4n3)cc2o1 (single isomer, unassigned) [Compound 295]",B (B represents 100-1000 nM),100 to 1000 nM,< 100 nM,
"Cc1nc2c(C)c(O)c(-c3ccc4nc(N5CC[C@H](NCC6CC6)C5)ccc4n3)cc2o1 (single isomer, unassigned) [Compound 296]",B (B represents 100-1000 nM),< 100 nM,< 100 nM,
"Cn1cc2cc(-c3ccc4nc(N5CC[C@@H](N[C@H]6C[C@@H](F)C6)C5)ccc4n3)c(O)cc2n1 (single isomer, unassigned) [Compound 300]",B (B represents 100-1000 nM),< 100 nM,< 100 nM,
"Cn1cc2cc(-c3ccc4nc(N5CC[C@@H](NCC6CC6)C5)ccc4n3)c(O)c(F)c2n1 (single isomer, unassigned) [Compound 303]",A (A represents <100 nM),< 100 nM,< 100 nM,
"Cn1cc2cc(-c3ccc4nc(N5CC[C@H](NCC6CC6)C5)ccc4n3)c(O)c(F)c2n1 (single isomer, unassigned) [Compound 304]",A (A represents <100 nM),< 100 nM,< 100 nM,
"Cn1cc2cc(-c3ccc4nc(N5CC[C@@H](NC6CC6)C5)ccc4n3)c(O)c(F)c2n1 (single isomer, unassigned) [Compound 305]",A (A represents <100 nM),< 100 nM,< 100 nM,
"Cn1cc2cc(-c3ccc4nc(N5CC[C@H](NC6CC6)C5)ccc4n3)c(O)c(F)c2n1 (single isomer, unassigned) [Compound 306]",A (A represents <100 nM),< 100 nM,< 100 nM,
"Cc1nc2c(F)c(O)c(-c3ccc4nc(N5CC[C@@H](NC6CCC6)C5)ccc4n3)cc2o1 (single isomer, unassigned) [Compound 307]",A (A represents <100 nM),< 100 nM,< 100 nM,
"Cc1nc2c(F)c(O)c(-c3ccc4nc(N5CC[C@H](NC6CCC6)C5)ccc4n3)cc2o1 (single isomer, unassigned) [Compound 308]",A (A represents <100 nM),< 100 nM,< 100 nM,
"Cc1nc2c(C)c(O)c(-c3ccc4nc(N5CC[C@@H](NC6(C)CC6)C5)ccc4n3)cc2o1 (single isomer, unassigned) [Compound 310]",A (A represents <100 nM),< 100 nM,< 100 nM,

SMILES,"Effect of Exemplary Compounds on Cell Viability, K562 (K562 cells)",IC50 (Target C),IC50 (SMN2 mRNA; Homo sapiens),IC50 (SMN2 mRNA)
"Cc1nc2c(C)c(O)c(-c3ccc4nc(N5CC[C@H](NC6(C)CC6)C5)ccc4n3)cc2o1 (single isomer, unassigned) [Compound 311]",C (C represents 1000-9999 nM),100 to 1000 nM,< 100 nM,
"Cc1nc2c(C)c(O)c(-c3ccc4nc(N5CC[C@@H](NC(C)C)C5)ccc4n3)cc2o1 (single isomer, unassigned) [Compound 313]",A (A represents <100 nM),< 100 nM,< 100 nM,
"Cc1nc2c(C)c(O)c(-c3ccc4nc(N5CC[C@H](NC(C)C)C5)ccc4n3)cc2o1 (single isomer, unassigned) [Compound 314]",A (A represents <100 nM),< 100 nM,< 100 nM,
"Cn1cc2cc(-c3ccc4nc(N5CC[C@@H](NC6CCC6)C5)ccc4n3)c(O)c(F)c2n1 (single isomer, unassigned) [Compound 316]",A (A represents <100 nM),< 100 nM,< 100 nM,
"Cn1cc2cc(-c3ccc4nc(N5CC[C@H](NC6CCC6)C5)ccc4n3)c(O)c(F)c2n1 (single isomer, unassigned) [Compound 317]",A (A represents <100 nM),< 100 nM,< 100 nM,
"Cc1c(O)c(-c2ccc3nc(N4CC[C@@H](NC(C)C)C4)ccc3n2)cc2cn(C)nc12 (single isomer, unassigned) [Compound 319]",A (A represents <100 nM),< 100 nM,< 100 nM,
"Cc1c(O)c(-c2ccc3nc(N4CC[C@H](NCC5CC5)C4)ccc3n2)cc2cn(C)nc12 (single isomer, unassigned) [Compound 321]",B (B represents 100-1000 nM),< 100 nM,< 100 nM,
"Cc1c(O)c(-c2ccc3nc(N4CC[C@@H](NCC5CC5)C4)ccc3n2)cc2cn(C)nc12 (single isomer, unassigned) [Compound 322]",B (B represents 100-1000 nM),< 100 nM,< 100 nM,
"Cc1nc2c(F)c(O)c(-c3ccc4nc(N5CC[C@@H](NCC6CC6)C5)ccc4n3)cc2o1 (single isomer, unassigned) [Compound 323]",A (A represents <100 nM),< 100 nM,< 100 nM,
"Cc1nc2c(F)c(O)c(-c3ccc4nc(N5CC[C@H](NCC6CC6)C5)ccc4n3)cc2o1 (single isomer, unassigned) [Compound 324]",A (A represents <100 nM),< 100 nM,< 100 nM,
"Cc1nc2c(F)c(O)c(-c3ccc4nc(N5CC[C@@H](NC(C)C)C5)ccc4n3)cc2o1 (single isomer, unassigned) [Compound 329]",A (A represents <100 nM),< 100 nM,< 100 nM,
"Cc1nc2c(F)c(O)c(-c3ccc4nc(N5CC[C@H](NC(C)C)C5)ccc4n3)cc2o1 (single isomer, unassigned) [Compound 330]",A (A represents <100 nM),< 100 nM,< 100 nM,
"Cn1cc2cc(-c3ccc4nc(N5CC[C@H](N[C@H]6C[C@H](F)C6)C5)ccc4n3)c(O)c(F)c2n1 (single isomer, unassigned) [Compound 347]",A (A represents <100 nM),< 100 nM,< 100 nM,
"Cc1nc2cc(O)c(-c3ccc4nc(N5CC[C@@H](N[C@H]6C[C@H](F)C6)C5)ccc4n3)cc2o1 (single isomer, unassigned) [Compound 348]",C (C represents 1000-9999 nM),100 to 1000 nM,< 100 nM,
"Cn1cc2cc(-c3ccc4nc(N5CC[C@@H](N[C@H]6C[C@H](F)C6)C5)ccc4n3)c(O)c(F)c2n1 (single isomer, unassigned) [Compound 349]",B (B represents 100-1000 nM),< 100 nM,< 100 nM,
Cc1cn2nc(-c3ccc4nc(N5CCC(NC6CC6)C5)ccc4n3)c(O)c2c(C)n1 (centres unmarked) [Compound 252],,100 to 1000 nM,< 100 nM,
